# Measurements from patent US20210236449A1, “USE OF CHLOROGENIC ACID IN PREPARING DRUG FOR PREVENTING OR BLOCKING BRAIN AND/OR BONE METASTASES OF LUNG CANCER” (SICHUAN JIUZHANG BIOLOGICAL SCIENCE AND TECHNOLOGY CO., LTD, priority 2018, published 2021).
# Marks after values point to notes of the source that are not given here.
# System: EGFP-LA795 cells
# Assay: Inhibitory effect of chlorogenic acid on metastasis in LA795 lung cancer mice
# Format: in vivo, T739 mice
# Settings: for Abdominal metastasis / Axial bone metastasis / Bloody ascites / Brain metastasis / Limb bone metastasis / Local lymph node metastasis: once a day for 20 days, mice with finding/n = 10
# Description: (1) Animals: T739 mice, half male and half female, weighing 18-22 g, are provided by the Experimental Animal Center of Sichuan University.
# (2) Lung cancer cell lines: LA795, provided by Wuhan Procell Life Technology Co., Ltd.; Fetal bovine serum, provided by Hangzhou Sijiqing Bioengineering Materials Co., Ltd.; plasmid EGFP-C1, provided by Clontech; Liposome transfection reagent Lipofectamin 2000, provided by Invitrogen.
# LA795 cells were inoculated in a 6-well culture plate at 1×10^7 cells/mL, using DMEM complete medium containing 10% fetal bovine serum, and cultured in a 37° C., 5% CO2 incubator. When the cells were about 70% fused, liposome transfection reagent lipid Lipofectamin2000 was used and LA795 cells were transfected into plasmid EGFP-C1. 48 h after transfection, cells were passed and screened by G 418, then anti-G418 fluorescent positive clones appeared after about 4 weeks. Clones were observed under fluorescent inverted microscope, and one resistant fluorescent cell clone was randomly picked and transferred to 96-well plate for culture. After stepwise expansion, cells were routinely cultured and passaged. 400 μg/ml G418 was used to maintain screening and obtain expanded EGFP-LA795 cells. When EGFP-LA795 cells are 80%-90% fused in the logarithmic growth phase, they are digested with 0.25% trypsin, then centrifuged, and the cells are resuspended in DMEM to prepare a cell suspension for seeding (cell concentration 1×10^7 cells/mL). EGFP-LA795 cells grown on the wall were trypsinized to prepare a single cell suspension, and then diluted appropriately. The cell suspension was mixed with 0.4% trypan blue solution and counted under the microscope. The survival rate of EGFP-LA795 cells was >90%, and the positive clones were picked out under an inverted fluorescence microscope, followed by culture and amplification, to obtain LA795 cells with green fluorescence.
# 0.2 ml of EGFP-LA795 cell suspension at 1.0×10^7 cells/ml was inoculated into the armpit of mice, and then the mice were randomly divided into groups, 10 mice for each group, including the high-dose chlorogenic acid group, the middle-dose chlorogenic acid group, and the low-dose chlorogenic acid group and the model control group. Chlorogenic acid was administered by intraperitoneal injection, 40 mg/kg for the high-dose group, 20 mg/kg for the middle-dose group, 10 mg/kg for the low-dose group, and the administration volume was 1.0 ml; the model control group was given the same volume of normal saline by intraperitoneal injection, once a day for 20 days. In vivo imaging observations were performed on days 0, 10, and 20, respectively. After the test, the mice were sacrificed by cervical dislocation, and peripheral lymph nodes, axial bones, and long bones of the limbs were taken to observe and count metastases.
# 10% chloral hydrate was intraperitoneally injected at 4 ml/kg for anesthetization, and mice were put on the black rubber pad prepared for the in vivo imager. The irradiation conditions were GFP, the emission wavelength was 520 nm, the excitation wavelength was 480 nm, and the exposure time was 5 ms. The volume changes and metastasis of the tumor were observed.
# Surrounding lymph nodes were taken out, and 8 μm conventional and frozen sections were obtained, and routinely stained with hematoxylin-eosin (HE) every other one, to observe the tumor metastasis under fluorescence microscope and light microscope.
# Axial bones (such as ribs, spine, ilium, scapula) and long bones of the limbs of mice were chosen, cut into 0.5 cm×0.3 cm×0.3 cm bone pieces, and fixed with frozen 4% paraformaldehyde solution at 5° C. for 12 h-24 h; the bones were rinsed with phosphate buffer and decalcified with EDTA until the bone slices were completely decalcified. […]
# [1] = high dose group, 40 mg/kg intraperitoneal injection
# [2] = low dose group, 10 mg/kg intraperitoneal injection
# [3] = medium dose group, 20 mg/kg intraperitoneal injection
structure (smiles),measurement,setting,value
"O=C(/C=C/c1ccc(O)c(O)c1)O[C@@H]1C[C@](O)(C(=O)O)C[C@@H](O)[C@H]1O [Chlorogenic acid, chlorogenic acid]",metastasis of LA795 lung cancer cells in mice,20 mg/kg medium-dose group,No metastasis was found
same,Abdominal metastasis,[1],1/10*
same,Axial bone metastasis,[1],0/10*
same,Bloody ascites,[1],0/10*
same,Brain metastasis,[1],0/10*
same,Limb bone metastasis,[1],0/10*
same,Local lymph node metastasis,[1],1/10*
same,Abdominal metastasis,[2],2/10*
same,Axial bone metastasis,[2],0/10*
same,Bloody ascites,[2],0/10*
same,Brain metastasis,[2],0/10*
same,Limb bone metastasis,[2],0/10*
same,Local lymph node metastasis,[2],1/10*
same,number of metastatic foci in mice,"low, medium and high dose groups versus model control group",significantly reduced
same,Abdominal metastasis,[3],0/10*
same,Axial bone metastasis,[3],0/10*
same,Bloody ascites,[3],0/10*
same,Brain metastasis,[3],0/10*
same,Limb bone metastasis,[3],0/10*
same,Local lymph node metastasis,[3],0/10*
